Reference: paper PMC9486168, “Protein-protein interaction-based high throughput screening for adenylyl cyclase 1 inhibitors: Design, implementation, and discovery of a novel chemotype” (Frontiers in Pharmacology, 2022)
Structures can show the parent of a compound that is named as a salt. Where two headings read alike, the source gives them in different places.

How the values were obtained:
AC1-C1b/CaM = molecular target: T1, AC1-C1b/CaM (Homo sapiens, UniProt P0DP23); experiment: AC1-C1b/CaM fluorescence polarization (FP) assay; assay type: binding; details: for IC50: 100 nM AC1-C1b, 100 nM GST-CaM, 95% CI in brackets; for Ki: Cheng-Prusoff from FP IC50 and Kd; for AC1-CaM FP % inhib: relative to 100 μM CDZ (100% inhibition), highest concentration tested
T1 construct: made in house; host or cells: E. coli BL21-CodonPlus (DE3)-RIPL

AC8-Nt/CaM = molecular target: T2, AC8-Nt/CaM (Homo sapiens, UniProt P0DP23); experiment: AC8-Nt/CaM FP counterscreen assay; assay type: binding; details: for Ki (μM) AC8 NT / Ki: Cheng-Prusoff from FP IC50 and Kd, n/i given where none; for Ki ratio (AC8 NT/AC1): ratio >1: more potent in AC1/CaM FP;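 as to all read-outs here: fluorescence polarization of AC peptide binding GST-CaM in HEPES buffer with CaCl2, compound preincubated with CaM 30 min, peptide read after 2 h at room temperature in dark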
T2 construct: made in house; host or cells: E. coli BL21-CodonPlus (DE3)-RIPL

AC8-C2b/CaM = molecular target: T3, AC8-C2b/CaM (Homo sapiens, UniProt P0DP23); experiment: AC8-C2b/CaM FP counterscreen assay; assay type: binding; details: for Ki (μM) AC8 C2b / Ki: Cheng-Prusoff from FP IC50 and Kd, n/i given where none; for Ki ratio (AC8-C2b/AC1): ratio >1: more potent in AC1/CaM FP;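 as to all read-outs here: fluorescence polarization of AC peptide binding to GST-CaM in HEPES buffer with KCl and 50 µM CaCl2, compound preincubated 30 min with GST-CaM, DMSO and calmidazolium as controls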
T3 construct: made in house; host or cells: E. coli BL21-CodonPlus (DE3)-RIPL

AC1/CaM PPI = molecular target: T4, AC1/CaM PPI (Homo sapiens, UniProt P0DP23); experiment: AC1/CaM NanoBiT assay in HEK293T cells; assay type: cell-based; details: HEK293T, thapsigargin-stimulated, AUC; read-out: Nanobit: AC1-CaM IC50 (μM ± SEM)
T4 construct: human AC1 (hAC1) residues 1–1,118 were cloned; The hCaM residues 1–149, residues 1–1,248 of rat AC8 (rAC8); expressed in transfected cells; host or cells: HEK293T, transient transfection

AC8/CaM PPI = molecular target: T5, AC8/CaM PPI (Homo sapiens, UniProt P0DP23); experiment: AC8/CaM NanoBiT assay in HEK293T cells; assay type: cell-based, rat; details: for fold selective for AC8 over AC1 in the NanoBiT assay: AC8/CaM vs AC1/CaM NanoBiT; for IC50: HEK293T, thapsigargin-stimulated, AUC, read-out: Nanobit: AC8-CaM IC50 (μM ± SEM)
T5 construct: confirmed as an AC1/AC8 non-selective hit against full-length AC1- and AC8-CaM in the NanoBiT assay; The hCaM residues 1–149, residues 1–1,248 of rat AC8 (rAC8); expressed in transfected cells; host or cells: HEK293T, transient transfection

[1] = CellTiter-Glo 2.0 cell viability assay; assay type: cell-based; details: human, HEK293T cells, pH 7.4; for viability at 30 min: at the compound's AC1/CaM NanoBiT IC50 concentration, read-out: % Viable Cells at AC1 IC50;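 as to all read-outs here: luminescence read-out after 30 min compound exposure at 37 °C in HEPES-buffered HBSS, scaled to vehicle-treated cells as 100% and cell-free buffer wells as 0%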
AC1 = molecular target: T6, AC1 (Homo sapiens, UniProt Q08828); experiment: cAMP accumulation assay, AC1-HEK Δ3/6 KO cells; assay type: cell-based; details: for inhibition of AC1 activity (efficacy): initial characterization of hits, data not shown; for inhibition of AC1 activity: CDI analog set, maximal inhibition of A23187 response
T6 construct: expressed in transfected cells
T6 sequence (Q08828 whole entry): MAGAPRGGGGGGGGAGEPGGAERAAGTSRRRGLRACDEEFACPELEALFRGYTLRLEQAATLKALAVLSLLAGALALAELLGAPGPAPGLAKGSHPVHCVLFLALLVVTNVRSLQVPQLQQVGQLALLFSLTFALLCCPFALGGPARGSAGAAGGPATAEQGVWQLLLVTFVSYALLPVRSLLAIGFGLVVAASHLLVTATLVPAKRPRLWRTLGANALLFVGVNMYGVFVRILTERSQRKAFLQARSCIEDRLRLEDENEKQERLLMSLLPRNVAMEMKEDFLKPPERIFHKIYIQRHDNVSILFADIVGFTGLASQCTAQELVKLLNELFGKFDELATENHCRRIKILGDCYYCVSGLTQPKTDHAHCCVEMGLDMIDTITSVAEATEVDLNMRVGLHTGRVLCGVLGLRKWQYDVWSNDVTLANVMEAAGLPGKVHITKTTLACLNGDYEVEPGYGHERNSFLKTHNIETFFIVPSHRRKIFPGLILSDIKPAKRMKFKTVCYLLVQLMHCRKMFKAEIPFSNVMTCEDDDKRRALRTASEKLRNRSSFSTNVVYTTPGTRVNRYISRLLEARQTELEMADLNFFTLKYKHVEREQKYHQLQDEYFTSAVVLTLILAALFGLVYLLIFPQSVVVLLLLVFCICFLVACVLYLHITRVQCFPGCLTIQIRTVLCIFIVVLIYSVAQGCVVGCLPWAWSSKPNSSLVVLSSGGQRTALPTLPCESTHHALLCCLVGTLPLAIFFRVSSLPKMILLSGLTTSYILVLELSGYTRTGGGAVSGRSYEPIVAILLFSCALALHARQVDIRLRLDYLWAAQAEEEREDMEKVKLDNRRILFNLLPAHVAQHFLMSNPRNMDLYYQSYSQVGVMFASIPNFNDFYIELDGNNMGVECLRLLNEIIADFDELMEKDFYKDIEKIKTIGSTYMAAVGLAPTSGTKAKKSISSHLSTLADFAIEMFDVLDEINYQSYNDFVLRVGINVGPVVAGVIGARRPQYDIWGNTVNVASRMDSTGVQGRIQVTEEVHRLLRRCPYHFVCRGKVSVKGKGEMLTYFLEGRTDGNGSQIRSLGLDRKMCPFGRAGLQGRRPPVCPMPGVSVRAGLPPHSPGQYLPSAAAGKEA
Protocol: Cells were then incubated for 1 h at 37°C and 5% CO2. Cells were then treated with varying concentrations of inhibitors for 30 min, followed by treatment with calcium ionophore A23187 (3 μM) in 500 μM 3-isobutyl-1-methylxanthine (IBMX), a phosphodiesterase inhibitor, for 1 h at RT (Sigma Aldrich, St. Louis, MO). Finally, Cisbio HTRF detection reagents were added and incubated for 1–24 h at RT. Plates were read according to manufacturer’s protocol on an HTRF-compatible plate reader at 620 and 665 nm cAMP concentrations were interpolated from a cAMP standard curve. […] For cytotoxicity assays, compounds were tested at 30 μM and this protocol was used with the exception of detection reagents; CellTiter-Glo 2.0 reagent was used according to manufacturer’s protocol and luminescence was read on the Synergy Neo2 plate reader. Data are normalized to cells treated with vehicle (100%) or 2% tween (0%) and are represented as the percent of vehicle, from the average of three independent experiments (N = 3).

CaM = molecular target: T7, CaM (Homo sapiens, UniProt P0DP23); experiment: 1H-15N HSQC NMR of 15N-CaM with compound; assay type: binding; details: 5 equivalent molar excess over 100 μM CaM
T7 construct: 6X-His-GST (N, cleaved yes); made in house; host or cells: E. coli BL21-CodonPlus (DE3)-RIPL in M9 minimal media with 15NH4Cl
Protocol: All NMR samples contained 100 μM ^15N-CaM in 20 mM HEPES pH 7.4, 100 mM KCl, 10 mM CaCl2, 10% D2O, and 5% DMSO. Initial spectra were collected for CaM alone before individual compounds were titrated to observe chemical shift perturbations. All spectra were acquired at 298 K using a 600 MHz Bruker Avance NEO NMR spectrometer with a triple resonance gradient cryoprobe. NMR spectra were processed using NMRPipe and analyzed using NMRFAM-SPARKY.

HEK293T cells = experiment: CellTiter-Glo 2.0 cell viability assay; assay type: cell-based; details: for cell viability reduced at highest concentration tested: 316 μM; for decrease in cell viability at AC1/CaM IC50: at AC1/CaM NanoBiT IC50;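 as to all read-outs here: luminescence read-out after 30 min compound exposure at 37 °C in HEPES-buffered HBSS, scaled to vehicle-treated cells as 100% and cell-free buffer wells as 0%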
AC8 = molecular target: T8, AC8 (Homo sapiens, UniProt P40145); experiment: cAMP accumulation assay, AC8-HEK Δ3/6 KO cells; assay type: cell-based; details: CDI analog SAR set, 3 μM A23187; read-out: IC50 (μM) ± SEM AC8
T8 construct: expressed in transfected cells
T8 sequence (P40145 whole entry, species assumed): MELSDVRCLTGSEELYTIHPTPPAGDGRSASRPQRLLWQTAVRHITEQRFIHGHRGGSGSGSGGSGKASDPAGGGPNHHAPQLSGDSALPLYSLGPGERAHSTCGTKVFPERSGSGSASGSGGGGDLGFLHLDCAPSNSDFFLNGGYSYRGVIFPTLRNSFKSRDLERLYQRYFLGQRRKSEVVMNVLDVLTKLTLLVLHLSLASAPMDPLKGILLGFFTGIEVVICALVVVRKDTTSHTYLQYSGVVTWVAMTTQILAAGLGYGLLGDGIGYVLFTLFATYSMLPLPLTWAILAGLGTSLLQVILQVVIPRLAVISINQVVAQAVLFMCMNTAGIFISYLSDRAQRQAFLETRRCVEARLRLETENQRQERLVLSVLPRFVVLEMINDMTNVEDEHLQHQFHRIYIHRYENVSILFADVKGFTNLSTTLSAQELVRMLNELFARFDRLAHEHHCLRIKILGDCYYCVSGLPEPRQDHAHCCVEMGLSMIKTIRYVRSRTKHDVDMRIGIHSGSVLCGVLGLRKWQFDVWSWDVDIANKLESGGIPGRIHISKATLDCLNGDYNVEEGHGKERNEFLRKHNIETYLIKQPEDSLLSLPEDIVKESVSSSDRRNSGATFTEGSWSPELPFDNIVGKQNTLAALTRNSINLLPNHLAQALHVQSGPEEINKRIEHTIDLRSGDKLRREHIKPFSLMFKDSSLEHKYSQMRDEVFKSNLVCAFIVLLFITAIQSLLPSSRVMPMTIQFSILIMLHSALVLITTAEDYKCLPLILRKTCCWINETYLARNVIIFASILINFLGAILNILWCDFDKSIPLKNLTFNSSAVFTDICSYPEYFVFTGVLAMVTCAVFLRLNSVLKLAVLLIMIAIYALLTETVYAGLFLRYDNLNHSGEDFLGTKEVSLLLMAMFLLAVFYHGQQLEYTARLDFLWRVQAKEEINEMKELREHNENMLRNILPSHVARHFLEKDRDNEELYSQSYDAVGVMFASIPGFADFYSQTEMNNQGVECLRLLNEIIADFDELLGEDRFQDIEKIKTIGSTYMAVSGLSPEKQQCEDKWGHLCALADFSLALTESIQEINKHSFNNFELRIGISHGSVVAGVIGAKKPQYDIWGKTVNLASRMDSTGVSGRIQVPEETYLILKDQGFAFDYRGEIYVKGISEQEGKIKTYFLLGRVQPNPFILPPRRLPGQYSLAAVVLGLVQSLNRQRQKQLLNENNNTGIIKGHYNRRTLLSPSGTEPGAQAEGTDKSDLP
Protocol: (§1) Cryopreserved HEK293 cells with AC3 and AC6 knocked out, and stably expressing AC1, AC2, AC5, or AC8 (AC1-HEK Δ3/6 KO, AC2-HEK Δ3/6 KO, AC5-HEK Δ3/6 KO, or AC8-HEK Δ3/6 KO cells, respectively; [Soto-Velasquez et al., 2018]) were plated at 5,000 cells/well. Cells were then incubated for 1 h at 37°C and 5% CO2. Cells were then treated with varying concentrations of inhibitors for 30 min, followed by treatment with calcium ionophore A23187 (3 μM) in 500 μM 3-isobutyl-1-methylxanthine (IBMX), a phosphodiesterase inhibitor, for 1 h at RT (Sigma Aldrich, St. Louis, MO). Finally, Cisbio HTRF detection reagents were added and incubated for 1–24 h at RT. Plates were read according to manufacturer’s protocol on an HTRF-compatible plate reader at 620 and 665 nm cAMP concentrations were interpolated from a cAMP standard curve. […] For cytotoxicity assays, compounds were tested at 30 μM and this protocol was used with the exception of detection reagents; CellTiter-Glo 2.0 reagent was used according to manufacturer’s protocol and luminescence was read on the Synergy Neo2 plate reader. Data are normalized to cells treated with vehicle (100%) or 2% tween (0%) and are represented as the percent of vehicle, from the average of three independent experiments (N = 3).

AC2 = molecular target: T9, AC2 (Homo sapiens, UniProt Q08462); experiment: cAMP accumulation assay, AC2-HEK Δ3/6 KO cells; assay type: cell-based; details: for % Inhibited at AC2 ± SEM: 30 μM; for inhibition at 30 µM: read-out: % Inhibited at AC2 ± SEM
T9 construct: expressed in transfected cells
T9 sequence (Q08462 whole entry): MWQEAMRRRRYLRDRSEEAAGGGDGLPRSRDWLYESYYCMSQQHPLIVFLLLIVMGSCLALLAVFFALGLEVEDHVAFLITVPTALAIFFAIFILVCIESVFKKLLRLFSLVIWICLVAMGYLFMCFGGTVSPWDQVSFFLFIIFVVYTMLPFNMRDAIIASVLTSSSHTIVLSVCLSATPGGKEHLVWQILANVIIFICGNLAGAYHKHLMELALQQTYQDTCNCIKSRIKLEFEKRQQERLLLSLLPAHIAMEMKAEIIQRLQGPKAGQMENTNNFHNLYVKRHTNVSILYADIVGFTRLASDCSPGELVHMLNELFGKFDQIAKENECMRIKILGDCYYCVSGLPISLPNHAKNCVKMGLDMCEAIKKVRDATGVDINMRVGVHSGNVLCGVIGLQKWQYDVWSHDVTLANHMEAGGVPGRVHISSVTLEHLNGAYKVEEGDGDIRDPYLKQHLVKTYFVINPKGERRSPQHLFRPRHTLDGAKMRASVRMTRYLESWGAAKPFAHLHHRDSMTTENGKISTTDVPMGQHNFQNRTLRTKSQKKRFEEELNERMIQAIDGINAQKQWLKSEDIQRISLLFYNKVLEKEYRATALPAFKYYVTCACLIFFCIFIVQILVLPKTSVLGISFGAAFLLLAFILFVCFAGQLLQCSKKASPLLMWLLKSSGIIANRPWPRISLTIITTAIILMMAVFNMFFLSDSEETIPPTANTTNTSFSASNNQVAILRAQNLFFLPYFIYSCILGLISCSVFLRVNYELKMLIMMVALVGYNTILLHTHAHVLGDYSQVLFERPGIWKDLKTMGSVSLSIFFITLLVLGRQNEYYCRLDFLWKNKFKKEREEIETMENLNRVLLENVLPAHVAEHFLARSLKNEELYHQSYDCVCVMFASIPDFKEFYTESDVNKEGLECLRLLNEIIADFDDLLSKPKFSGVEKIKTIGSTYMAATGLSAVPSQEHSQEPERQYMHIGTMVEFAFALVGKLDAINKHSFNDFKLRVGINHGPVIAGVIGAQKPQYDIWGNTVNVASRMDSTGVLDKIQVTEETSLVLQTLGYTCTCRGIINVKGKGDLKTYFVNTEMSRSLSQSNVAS
Protocol: as §1

AC5 = molecular target: T10, AC5 (Homo sapiens, UniProt O95622); experiment: cAMP accumulation assay, AC5-HEK Δ3/6 KO cells; assay type: cell-based; details: for inhibition at 30 µM: read-out: % Inhibited at AC5 ± SEM
T10 construct: expressed in transfected cells
T10 sequence (O95622 whole entry, species assumed): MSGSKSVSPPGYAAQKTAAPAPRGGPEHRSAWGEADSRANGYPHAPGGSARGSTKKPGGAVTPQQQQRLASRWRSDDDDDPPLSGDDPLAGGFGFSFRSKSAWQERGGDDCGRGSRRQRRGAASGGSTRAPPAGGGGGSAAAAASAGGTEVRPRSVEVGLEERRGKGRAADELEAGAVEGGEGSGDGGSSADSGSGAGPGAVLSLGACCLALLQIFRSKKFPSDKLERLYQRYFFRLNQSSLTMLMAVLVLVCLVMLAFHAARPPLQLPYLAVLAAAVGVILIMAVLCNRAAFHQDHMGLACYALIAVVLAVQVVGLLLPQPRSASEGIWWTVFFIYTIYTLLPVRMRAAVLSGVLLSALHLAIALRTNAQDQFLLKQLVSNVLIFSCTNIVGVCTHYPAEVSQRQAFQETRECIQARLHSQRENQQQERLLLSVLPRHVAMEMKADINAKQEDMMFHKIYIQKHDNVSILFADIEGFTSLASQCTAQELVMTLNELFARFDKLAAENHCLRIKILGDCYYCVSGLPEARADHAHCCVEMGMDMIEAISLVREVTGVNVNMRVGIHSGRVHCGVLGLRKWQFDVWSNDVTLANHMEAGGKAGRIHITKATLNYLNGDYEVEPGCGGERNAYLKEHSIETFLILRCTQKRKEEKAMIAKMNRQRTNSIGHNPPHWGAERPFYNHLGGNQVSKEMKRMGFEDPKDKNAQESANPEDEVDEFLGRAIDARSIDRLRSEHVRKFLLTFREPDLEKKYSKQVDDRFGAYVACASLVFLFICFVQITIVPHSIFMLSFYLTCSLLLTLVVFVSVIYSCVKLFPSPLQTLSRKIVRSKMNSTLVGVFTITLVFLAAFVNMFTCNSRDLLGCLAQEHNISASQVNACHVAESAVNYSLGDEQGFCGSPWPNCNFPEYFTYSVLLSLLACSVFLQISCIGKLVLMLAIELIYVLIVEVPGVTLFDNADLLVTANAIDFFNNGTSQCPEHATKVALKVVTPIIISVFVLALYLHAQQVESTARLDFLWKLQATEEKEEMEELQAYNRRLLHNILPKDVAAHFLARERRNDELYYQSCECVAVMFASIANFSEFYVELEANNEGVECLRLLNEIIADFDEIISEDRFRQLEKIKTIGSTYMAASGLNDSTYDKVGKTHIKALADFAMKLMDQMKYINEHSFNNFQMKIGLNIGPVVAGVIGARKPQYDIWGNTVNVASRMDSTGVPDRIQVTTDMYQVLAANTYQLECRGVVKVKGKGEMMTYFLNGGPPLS
Protocol: as §1

[2] = Cytotoxicity assay (CellTiter-Glo 2.0) in AC1-HEK Δ3/6 KO cells; assay type: cell-based; details: human, percent of vehicle, read-out: % Viable Cells at AC1 30 μM
Protocol: as §1

[3] = initial examination, 10,000 cells per well, 3 μM A23187, 1 h RT, read-out: AC1 IC50 ± SEM
[4] = CDI analog SAR set, 3 μM A23187, read-out: IC50 (μM) ± SEM AC1

SMILES	IC50 (AC1-C1b/CaM)	Ki (AC1-C1b/CaM)	AC1-CaM FP % inhib (AC1-C1b/CaM)	Ki ratio (AC8 NT/AC1) (AC8-Nt/CaM)	Ki ratio (AC8-C2b/AC1) (AC8-C2b/CaM)	IC50 (AC1/CaM PPI)	IC50 (AC8/CaM PPI)	viability at 30 min [1]	Ki (AC8-Nt/CaM)	Ki (AC8-C2b/CaM)	decrease in cell viability at AC1/CaM IC50 (HEK293T cells)	also measured
O=S(=O)(Nc1ccc2c(c1)N(S(=O)(=O)c1ccc(F)cc1)CCC2)c1cccc(F)c1 [Compound 18]	38.4 µM	9.1 µM	54%	AC1 Selective	AC1 Selective	16.1 ± 1.12 µM	5.71 ± 1.22 µM	100%				Ki (μM) AC8 NT (AC8-Nt/CaM): n/i; Ki (μM) AC8 C2b (AC8-C2b/CaM): n/i; fold selective for AC8 over AC1 in the NanoBiT assay (AC8/CaM PPI): ~3 fold; viability at 30 min, 316 µM ([1]; 316 μM, read-out: cell viability at highest concentration tested): 90%; inhibition of AC1 activity (efficacy) (AC1): ~70%; IC50 (AC1; [3]): 6.7 ± 0.7 µM; chemical shift perturbations (CSP) of 15N-CaM (CaM): modest chemical shift changes
Cn1cc(C(=O)Nc2ccc(Cl)cc2Cl)c2[nH]c(=O)n(-c3ccc(Cl)cc3)c(=O)c21 [Compound 21]	9.9 µM		59%	AC1 Selective	AC1 Selective	25.6 ± 1.42 µM	6.8 ± 1.19 µM	100%				Ki (μM) AC8 NT (AC8-Nt/CaM): n/i; Ki (μM) AC8 C2b (AC8-C2b/CaM): n/i; fold selective for AC8 over AC1 in the NanoBiT assay (AC8/CaM PPI): 2- to 4 fold; inhibition of AC1 activity (efficacy) (AC1): ~50%; IC50 (AC1; [3]): 8.77 ± 4.47 µM; chemical shift perturbations (CSP) of 15N-CaM (CaM): modest chemical shift changes
CC(=O)Oc1c(Sc2ccc(Cl)cc2)c(C)nn1C(C)(C)C [Compound 13]	73.5 µM	17.4 µM		AC1 Selective	AC1 Selective	16.1 ± 1.13 µM	13.1 ± 1.19 µM	96%				Ki (μM) AC8 NT (AC8-Nt/CaM): n/i; Ki (μM) AC8 C2b (AC8-C2b/CaM): n/i; cell viability reduced at highest concentration tested (HEK293T cells): ~50%; cell viability at ∼300 μM (HEK293T cells; ∼300 μM): decrease in cell viability; IC50 (AC1; [3]): 31 ± 6.63 µM; chemical shift perturbations (CSP) of 15N-CaM (CaM): largest CSPs
[H]/N=C(\N/C(=N/[H])NCCCCCCNC(=N)NC(=N)Nc1ccc(Cl)cc1)Nc1ccc(Cl)cc1 [Compound 9, Chlorhexidine HCl]	22 µM	5.2 µM	15%	2.7	4.0	111 ± 1.23 µM	47.1 ± 1.35 µM	80%	13.8 µM	20.8 µM	greater than 10%	
CCc1cc(C(c2cccs2)N2CCC(C)CC2)c(NC(=O)c2ccco2)s1 (centres unmarked) [Compound 24]												IC50 (AC1; [4]): 2.75 ± 0.82 µM; inhibition of AC1 activity (AC1): 100%; IC50 (AC8): 2.7 ± 0.24 µM; % Inhibited at AC2 ± SEM (AC2): 15 ± 11%; inhibition at 30 µM (AC2): < 16%; % Inhibited at AC5 ± SEM (AC5; 30 μM): 16 ± 11%; inhibition at 30 µM (AC5): < 16%; viability at 30 min, 30 μM [2]: 77%
CCCCC(CC)CNC(=N)NC(=N)NCCCCCCNC(=N)NC(=N)NCC(CC)CCCC (centres unmarked) [Compound 3, Alexidine]	2.8 µM	0.67 µM	103%	1.6	3.9	17.9 ± 1.15 µM	16.5 ± 1.15 µM	75%	1.1 µM	2.6 µM	25%	decrease in cell viability at 100 μM (HEK293T cells; 100 μM): 70%
Cc1cc2nc3ccc(N(C)C)cc3[s+]c2cc1N [Compound 1, Tolonium Chloride]	1.24 µM	0.29 µM		7.9	1.5	32.9 ± 1.01 µM	8.4 ± 1.19 µM	80%	2.3 µM	0.44 µM	greater than 10%	
CCCCCCCCOc1ccccc1C(=O)Nc1ccc(C(=O)OCC[N+](C)(CC)CC)cc1 [Compound 7, Otilonium]	17.1 µM	4.1 µM	92%	1.6	2.5	18.8 ± 1.16 µM	12.8 ± 1.22 µM	96%	6.3 µM	10.3 µM		cell viability reduced at highest concentration tested (HEK293T cells): ~50%
O=C1c2c(O)ccc(O)c2C(=O)c2c(NCCNCCO)ccc(NCCNCCO)c21 [Compound 11, Mitoxantrone HCl]	27.5 µM	6.5 µM	40%	6.3	1.3	44 ± 1.15 µM	29.8 ± 1.18 µM	87%	41.1 µM	8.2 µM	greater than 10%	
O=C(Nc1sc2c(c1C(c1cccs1)N1CCOCC1)CCCC2)c1ccco1 (centres unmarked) [Compound 32]												IC50 (AC1; [4]): 0.89 ± 0.04 µM; inhibition of AC1 activity (AC1): 100%; IC50 (AC8): 1.86 ± 0.32 µM; % Inhibited at AC2 ± SEM (AC2): 10 ± 8%; inhibition at 30 µM (AC2): < 16%; viability at 30 min, 30 μM [2]: 100%
Cc1cc(C(c2cccs2)N2CCN(C)CC2)c(NC(=O)c2ccco2)s1 (centres unmarked) [Compound 25]												IC50 (AC1; [4]): 6.39 ± 0.89 µM; inhibition of AC1 activity (AC1): 100%; IC50 (AC8): 8.85 ± 2.7 µM; inhibition at 30 µM (AC2): 52 ± 11%; inhibition at 30 µM (AC5): 46 ± 5%; viability at 30 min, 30 μM [2]: 94%
